# Reference: publication PMC7151078, “A Novel NMDA Receptor Antagonist Protects against Cognitive Decline Presented by Senescent Mice” (Pharmaceutics, 2020)
# Columns and labels:
# SAMR1 and SAMP8 mice [1] = experiment: Novel object recognition test (NORT); type: in vivo, mouse; conditions: 5 mg/kg/day
# Description: Male SAMR1 and SAMP8 mice (n = 41) with 20-weeks-old were used to carry out cognitive and molecular analysis. The animals were randomly divided into four groups: SAMR1 control (SR1 Ct) group (n = 11), SAMP8 control (SP8 Ct) group (n = 8), SAMR1 treated with RL-208 (SR1 RL-208 (5 mg/Kg)) group (n = 10) and SAMP8 treated with RL-208 (SP8 RL-208 (5 mg/Kg)) group (n = 12). Animals had free access to food and water, under standard temperature conditions (22±2 °C) and 12h:12h light-dark cycles (300 lux/0 lux). RL-208, (3,4,8,9-tetramethyltetracyclo[4.4.0.0^3,9.0^4,8]dec-1-yl)-methylamine hydrochloride, (5 mg/kg/day) was administered through drinking water for four weeks before starting the cognitive test. RL-208 was administered up to euthanasia (Figure 1A). Water consumption was controlled each week for each cage and strain. Afterwards, RL-208 concentration was adjusted accordingly to reach the optimal dose for each cage. The novel object recognition test (NORT) allows evaluating short- and long-term recognition memory involving cortical areas and the hippocampus. The experimental apparatus used for this test was a 90º, two-arm, 25-cm-long, 20-cm-high, and a 5-cm-wide black maze of black polyvinyl chloride (Figure 1D). The walls could be removed for easy cleaning with 70% ethanol to eliminate olfactory cues, and light intensity in mid-field was 30 lux. The objects to be discriminated were made of plastic and chosen not to frighten mice and without any part likely to be bitten. Before performing the test, the mice were individually habituated to the apparatus for 10 min during 3 consecutive days. On day four the next day, the animals were allowed to explore freely a 10 min acquisition trial (First trial), during which they were placed in the maze in the presence of two identical novel objects (A+A’ or B+B’) at the end of each arm. The mouse was then removed from the apparatus and returned to its home cage. A 10 min retention trial (Second trial) was carried out two hours later. […] The time that mice explored the novel object (TN) and time that mice explored the old object (TO) were measured from the video recordings from each trial session Exploration of an object was defined as pointing the nose towards the object at a distance ≤2 cms and/or touching it with the nose. […] To avoid object preference biases objects A and B were counterbalanced so that one-half of the animals in each experimental group were first exposed to object A and then to object B, whereas the other half first saw object B and then object A. To evaluate the cognitive performance, the discrimination index (DI) was calculated, which is defined as (TN-TO)/(TN+TO).
# SAMR1 and SAMP8 mice [2] = experiment: Oxidative stress: hydrogen peroxide levels (fluorimetric kit); type: in vivo, mouse; conditions: hippocampus, both RL-208 treated mice groups vs control groups
# Description: Male SAMR1 and SAMP8 mice (n = 41) with 20-weeks-old were used to carry out cognitive and molecular analysis. The animals were randomly divided into four groups: SAMR1 control (SR1 Ct) group (n = 11), SAMP8 control (SP8 Ct) group (n = 8), SAMR1 treated with RL-208 (SR1 RL-208 (5 mg/Kg)) group (n = 10) and SAMP8 treated with RL-208 (SP8 RL-208 (5 mg/Kg)) group (n = 12). Animals had free access to food and water, under standard temperature conditions (22±2 °C) and 12h:12h light-dark cycles (300 lux/0 lux). RL-208, (3,4,8,9-tetramethyltetracyclo[4.4.0.0^3,9.0^4,8]dec-1-yl)-methylamine hydrochloride, (5 mg/kg/day) was administered through drinking water for four weeks before starting the cognitive test. RL-208 was administered up to euthanasia (Figure 1A). Water consumption was controlled each week for each cage and strain. Afterwards, RL-208 concentration was adjusted accordingly to reach the optimal dose for each cage. […]
compound,measurement,setting,value
"CC12CC3CC1(C)C1(C)CC3(CN)CC21C.Cl [RL-208, (3,4,8,9-tetramethyltetracyclo [4.4.0.0^3,9.0^4,8]dec-1-yl)methylamine hydrochloride]",NORT short-term recognition memory (DI),"SAMR1 and SAMP8 mice [1]; SP8 RL-208 vs SP8 Ct, 2 h retention",significant gain
same,NORT long-term recognition memory (DI),"SAMR1 and SAMP8 mice [1]; SP8 RL-208 vs SP8 Ct, 24 h retention",significant gain
same,NORT long-term DI,SAMR1 and SAMP8 mice [1]; between SR1 groups,no significant changes
same,NORT short-term DI,SAMR1 and SAMP8 mice [1]; between SR1 groups,no significant changes
same,hydrogen peroxide (ROS) levels,SAMR1 and SAMP8 mice [2],significant decrease
